Measurements from PubChem BioAssay (NCI).
Several values for one entry are separate records, joined by “and”; a condition that tells them apart may be missing. Equal values may be shown once.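 A five-concentration, 48-hour dose response in 96-well plates underlies each endpoint, interpolated linearly between surrounding concentrations. GI50 = concentration required for 50% inhibition of growth. TGI: total growth inhibition.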

Key:
Experiment in all cases: DTP human tumour cell line panel, 48 h
SK-OV-3 ovarian = system: SK-OV-3 ovarian
HCC-2998 colon = system: HCC-2998 colon
SNB-19 CNS = system: SNB-19 CNS
CAKI-1 renal = system: CAKI-1 renal
LOX IMVI melanoma = system: LOX IMVI melanoma
M14 melanoma = system: M14 melanoma
HCT-116 colon = system: HCT-116 colon
EKVX NSCLC = system: EKVX NSCLC
OVCAR-5 ovarian = system: OVCAR-5 ovarian
DU-145 prostate = system: DU-145 prostate

Cc1cccc(Cl)c1NC(=O)c1cnc(Nc2cc(N3CCOCC3)cc(N3CCOCC3)c2)s1
GI50 (SK-OV-3 ovarian): 0.0178 µM
TGI (SK-OV-3 ovarian): 1.6 µM
GI50 (HCC-2998 colon): > 4.21 µM
TGI (HCC-2998 colon): > 10 µM
GI50 (SNB-19 CNS): > 3.36 µM
TGI (SNB-19 CNS): > 10 µM
GI50 (CAKI-1 renal): 0.00467 µM
TGI (CAKI-1 renal): 0.0246 µM
GI50 (LOX IMVI melanoma): 0.012 µM
TGI (LOX IMVI melanoma): 0.083 µM
GI50 (M14 melanoma): 4.18 µM
TGI (M14 melanoma): > 10 µM
GI50 (HCT-116 colon): 0.0328 µM
TGI (HCT-116 colon): > 10 µM
GI50 (EKVX NSCLC): 0.213 µM
TGI (EKVX NSCLC): > 10 µM
GI50 (OVCAR-5 ovarian): 0.0275 µM
TGI (OVCAR-5 ovarian): > 10 µM
GI50 (DU-145 prostate): 0.163 µM
TGI (DU-145 prostate): > 3.6 µM

CC(C)[NH-].CC(C)[NH-].O.O.[Cl][Pt+2][Cl]
GI50 (SK-OV-3 ovarian): 28.6 µM
TGI (SK-OV-3 ovarian): 92.6 µM
GI50 (HCC-2998 colon): 87.9 µM
TGI (HCC-2998 colon): 220 µM
GI50 (SNB-19 CNS): 70.9 µM
TGI (SNB-19 CNS): 314 µM
GI50 (CAKI-1 renal): 31.3 µM
TGI (CAKI-1 renal): 124 µM
GI50 (LOX IMVI melanoma): 18.3 µM
TGI (LOX IMVI melanoma): 51.4 µM
GI50 (M14 melanoma): 37.5 µM
TGI (M14 melanoma): 139 µM
GI50 (HCT-116 colon): 20.6 µM
TGI (HCT-116 colon): 69.3 µM
GI50 (EKVX NSCLC): 66.7 µM
TGI (EKVX NSCLC): 203 µM
GI50 (OVCAR-5 ovarian): 51.1 µM
TGI (OVCAR-5 ovarian): 145 µM
GI50 (DU-145 prostate): 38.7 µM
TGI (DU-145 prostate): 332 µM

CCN(CC)CCCC(C)Nc1c2ccc(Cl)cc2nc2cc(OC)c(OC)cc12 (stereo not given)
GI50 (SK-OV-3 ovarian): 2.65 µM
TGI (SK-OV-3 ovarian): 8.87 µM
GI50 (HCC-2998 colon): 1.49 µM
TGI (HCC-2998 colon): 3 µM
GI50 (SNB-19 CNS): 2.18 µM
TGI (SNB-19 CNS): 8.98 µM
GI50 (CAKI-1 renal): 2.01 µM
TGI (CAKI-1 renal): 5.78 µM
GI50 (LOX IMVI melanoma): 1.23 µM
TGI (LOX IMVI melanoma): 2.64 µM
GI50 (M14 melanoma): 1.88 µM
TGI (M14 melanoma): 3.56 µM
GI50 (HCT-116 colon): 0.861 µM
TGI (HCT-116 colon): 4.28 µM
GI50 (EKVX NSCLC): 1.78 µM
TGI (EKVX NSCLC): 5.06 µM
GI50 (OVCAR-5 ovarian): 2.18 µM
TGI (OVCAR-5 ovarian): 8.53 µM
GI50 (DU-145 prostate): 2.02 µM
TGI (DU-145 prostate): 11.2 µM

Cc1ccc(C(=O)N2CCN(C(=O)c3ccc(C)cc3)c3ccccc32)cc1
TGI (SK-OV-3 ovarian): 25 µM
TGI (HCC-2998 colon): 40.9 µM
TGI (SNB-19 CNS): > 100 µM
TGI (CAKI-1 renal): 82.7 µM
TGI (LOX IMVI melanoma): > 100 µM
TGI (M14 melanoma): > 100 µM
TGI (HCT-116 colon): > 62.6 µM
TGI (EKVX NSCLC): > 100 µM
TGI (OVCAR-5 ovarian): > 100 µM
TGI (DU-145 prostate): > 100 µM

Cn1c(/C=C(\C#N)c2cccc(C(F)(F)F)c2)nc2c(N3CCOCC3)nc(Cl)nc21
GI50 (SK-OV-3 ovarian): 3.7 µM
TGI (SK-OV-3 ovarian): 14.5 µM
GI50 (HCC-2998 colon): 1.67 µM
TGI (HCC-2998 colon): 3.2 µM
GI50 (SNB-19 CNS): 1.44 µM
TGI (SNB-19 CNS): 2.8 µM
GI50 (CAKI-1 renal): 0.656 µM
TGI (CAKI-1 renal): 1.97 µM
GI50 (LOX IMVI melanoma): 0.321 µM
TGI (LOX IMVI melanoma): 1.36 µM
GI50 (M14 melanoma): 0.733 µM
TGI (M14 melanoma): 2.08 µM
GI50 (HCT-116 colon): 0.178 µM
TGI (HCT-116 colon): 0.398 µM
GI50 (EKVX NSCLC): 1.21 µM
TGI (EKVX NSCLC): 2.73 µM
GI50 (OVCAR-5 ovarian): 1.32 µM
TGI (OVCAR-5 ovarian): 2.87 µM
GI50 (DU-145 prostate): 1.22 µM
TGI (DU-145 prostate): 2.48 µM

COc1ccc2nc3cc([N+](=O)[O-])ccc3c(NCCCN(CCO)CCO)c2c1
GI50 (SK-OV-3 ovarian): 12.7 µM
TGI (SK-OV-3 ovarian): 17.2 µM
GI50 (HCC-2998 colon): 2.87 µM
TGI (HCC-2998 colon): 7.88 µM
GI50 (SNB-19 CNS): 5.68 µM
TGI (SNB-19 CNS): 18.6 µM
GI50 (CAKI-1 renal): 10.9 µM
TGI (CAKI-1 renal): 22.8 µM
GI50 (LOX IMVI melanoma): 2.42 µM
TGI (LOX IMVI melanoma): 6.32 µM
GI50 (M14 melanoma): 2.36 µM
TGI (M14 melanoma): 5.18 µM
GI50 (HCT-116 colon): 2.36 µM
TGI (HCT-116 colon): 9.54 µM
GI50 (EKVX NSCLC): 7.48 µM
TGI (EKVX NSCLC): 18.4 µM
GI50 (OVCAR-5 ovarian): 12.5 µM
TGI (OVCAR-5 ovarian): 25.2 µM
GI50 (DU-145 prostate): 12.6 µM
TGI (DU-145 prostate): 43.4 µM

N#Cc1ccc(C2C3=C(CCCC3=O)OC3=C2C(=O)c2ccccc2C3=O)cc1 (stereo not given)
GI50 (SK-OV-3 ovarian): 3.17 µM
TGI (SK-OV-3 ovarian): 9.6 µM
GI50 (HCC-2998 colon): 3 µM
TGI (HCC-2998 colon): 8.38 µM
GI50 (SNB-19 CNS): 4.35 µM
TGI (SNB-19 CNS): 16 µM
GI50 (CAKI-1 renal): 1.88 µM
TGI (CAKI-1 renal): 3.93 µM
GI50 (LOX IMVI melanoma): 0.343 µM
TGI (LOX IMVI melanoma): 1.69 µM
GI50 (M14 melanoma): 1.71 µM
TGI (M14 melanoma): 3.37 µM
GI50 (HCT-116 colon): 0.48 µM
TGI (HCT-116 colon): 2.11 µM
GI50 (EKVX NSCLC): 1.28 µM
TGI (EKVX NSCLC): 3.86 µM
GI50 (OVCAR-5 ovarian): 2.09 µM
TGI (OVCAR-5 ovarian): 4.23 µM
GI50 (DU-145 prostate): 1.67 µM
TGI (DU-145 prostate): 3.07 µM

O=C1c2cc(-c3ccccc3)ccc2-c2c1c1ccc([N+](=O)[O-])cc1c(=O)n2CCCBr
GI50 (SK-OV-3 ovarian): 33.1 µM
TGI (SK-OV-3 ovarian): > 50 µM
GI50 (HCC-2998 colon): > 50 µM
TGI (HCC-2998 colon): > 50 µM
GI50 (SNB-19 CNS): > 36.8 µM
TGI (SNB-19 CNS): > 50 µM
GI50 (CAKI-1 renal): > 50 µM
TGI (CAKI-1 renal): > 50 µM
GI50 (LOX IMVI melanoma): > 50 µM
TGI (LOX IMVI melanoma): > 50 µM
GI50 (M14 melanoma): > 50 µM
TGI (M14 melanoma): > 50 µM
GI50 (HCT-116 colon): > 50 µM
TGI (HCT-116 colon): > 50 µM
GI50 (EKVX NSCLC): > 50 µM
TGI (EKVX NSCLC): > 50 µM
GI50 (OVCAR-5 ovarian): > 50 µM
TGI (OVCAR-5 ovarian): > 50 µM
GI50 (DU-145 prostate): > 50 µM
TGI (DU-145 prostate): > 50 µM

COc1cc(F)cc([C@@H](CO)NC(=O)[C@@H](C)N2Cc3ccc(-c4nc(NC5CCOCC5)ncc4Cl)cc3C2=O)c1
GI50 (SK-OV-3 ovarian): 3.25 µM
TGI (SK-OV-3 ovarian): > 100 µM
GI50 (HCC-2998 colon): 0.0125 µM
TGI (HCC-2998 colon): 57.5 µM
GI50 (SNB-19 CNS): 1.73 µM
TGI (SNB-19 CNS): > 100 µM
GI50 (CAKI-1 renal): 1.93 µM
TGI (CAKI-1 renal): 69.1 µM
GI50 (LOX IMVI melanoma): < 0.0181 µM
TGI (LOX IMVI melanoma): 11.8 µM
GI50 (M14 melanoma): < 0.01 µM
TGI (M14 melanoma): 0.962 µM
GI50 (HCT-116 colon): 0.0173 µM
TGI (HCT-116 colon): > 54.9 µM
GI50 (EKVX NSCLC): 0.108 µM
TGI (EKVX NSCLC): 66 µM
GI50 (OVCAR-5 ovarian): < 0.0127 µM
TGI (OVCAR-5 ovarian): > 100 µM
GI50 (DU-145 prostate): 12.3 µM
TGI (DU-145 prostate): > 84.2 µM

COc1ccc(-c2cn(-c3cccc(C(=O)/C=C/c4ccc(O)c(OC)c4)c3)c(=O)[nH]2)cc1
GI50 (SK-OV-3 ovarian): 4.32 µM
TGI (SK-OV-3 ovarian): 48.6 µM
GI50 (HCC-2998 colon): 2.39 µM
TGI (HCC-2998 colon): 6.14 µM
GI50 (SNB-19 CNS): 4.59 µM
TGI (SNB-19 CNS): 43.9 µM
GI50 (CAKI-1 renal): 5.79 µM
TGI (CAKI-1 renal): 50.4 µM
GI50 (LOX IMVI melanoma): 2.21 µM
TGI (LOX IMVI melanoma): 6.02 µM
GI50 (M14 melanoma): 4.48 µM
TGI (M14 melanoma): 40.5 µM
GI50 (HCT-116 colon): 1.89 µM
TGI (HCT-116 colon): 4.87 µM
GI50 (EKVX NSCLC): 8.4 µM
TGI (EKVX NSCLC): > 100 µM
GI50 (OVCAR-5 ovarian): 8.25 µM
TGI (OVCAR-5 ovarian): 35.4 µM
GI50 (DU-145 prostate): 3.02 µM
TGI (DU-145 prostate): 9.27 µM

Cc1ccc(C(=O)/C(=C\c2ccc([N+](=O)[O-])cc2)S(=O)Cc2ccc(F)cc2)cc1 (stereo not given)
GI50 (SK-OV-3 ovarian): 10.8 µM
TGI (SK-OV-3 ovarian): 23.2 µM
GI50 (HCC-2998 colon): 1.77 µM
TGI (HCC-2998 colon): 3.24 µM
GI50 (SNB-19 CNS): 1.75 µM
TGI (SNB-19 CNS): 3.33 µM
GI50 (CAKI-1 renal): 1.77 µM
TGI (CAKI-1 renal): 3.84 µM
GI50 (LOX IMVI melanoma): 1.46 µM
TGI (LOX IMVI melanoma): 2.95 µM
GI50 (M14 melanoma): 1.44 µM
TGI (M14 melanoma): 2.89 µM
GI50 (HCT-116 colon): 0.499 µM
TGI (HCT-116 colon): 1.79 µM
GI50 (EKVX NSCLC): 1.78 µM
TGI (EKVX NSCLC): 3.8 µM
GI50 (OVCAR-5 ovarian): 1.96 µM
TGI (OVCAR-5 ovarian): 3.93 µM
GI50 (DU-145 prostate): 1.49 µM
TGI (DU-145 prostate): 2.86 µM

CN1CCC(C(=O)Nc2n[nH]c3nc(-c4ccc(O)cc4)c(Br)cc23)CC1
GI50 (SK-OV-3 ovarian): 1.19 µM and 1.28 µM
TGI (SK-OV-3 ovarian): > 25 µM
GI50 (HCC-2998 colon): 1.08 µM and 1.32 µM
TGI (HCC-2998 colon): 5.72 µM and 8.32 µM
GI50 (SNB-19 CNS): 1.12 µM and 2.97 µM
TGI (SNB-19 CNS): > 25 µM
GI50 (CAKI-1 renal): 8.62 µM and 6.77 µM
TGI (CAKI-1 renal): > 25 µM
GI50 (LOX IMVI melanoma): 0.574 µM and 0.661 µM
TGI (LOX IMVI melanoma): 5.45 µM and > 12.2 µM
GI50 (M14 melanoma): 3.47 µM and 4.68 µM
TGI (M14 melanoma): 8.42 µM and 9.62 µM
GI50 (HCT-116 colon): 0.776 µM and 0.855 µM
TGI (HCT-116 colon): > 25 µM
GI50 (EKVX NSCLC): 6.62 µM and 2.51 µM
TGI (EKVX NSCLC): > 25 µM
GI50 (OVCAR-5 ovarian): 7.83 µM and 10.4 µM
TGI (OVCAR-5 ovarian): > 25 µM
GI50 (DU-145 prostate): 1.69 µM and 1.18 µM
TGI (DU-145 prostate): > 25 µM
